According to patent US7358233B2, “Tetronic acid derivative” (Toudai TLO, Ltd, priority 2001, dated 2008):

Assays:
HT-29 cells [1] = experiment: Antitumor effect against HT-29 cells transplanted into nude mice; assay type: in vivo
Method: The antitumor effect of VST at the animal level was examined. Specifically, HT-29 cells were transplanted into nude mice and tumor was grown to 100 mm^3. Subsequently, each concentration of VST was administered through the tail vein, progress of cancer was followed each day thereafter, and the tumor was enucleated to compare its size. […] Furthermore, the combined effect with CDDP (cisplatin) was examined.

HT-29 cells [2] = experiment: Combined use of VST and cisplatin, colony-forming ability of HT-29 cells; assay type: cell-based
Text: Enhancement of endoplasmic reticulum stress response promotes survival of cells under undernutritive conditions, and at the same time allows cells to acquire resistance to antitumor agents. Therefore, the inventors intended to examine the effect of VST on known antitumor agents. […] Therefore, the combined effect with other pharmaceutical agents could not be duly examined. Thus, cisplatin generally used for solid cancer treatment was used to examine the combined effect, due to its activity on cancer cells that is maintained even under low glucose conditions. Specifically, HT-29 cells were cultured by the above-mentioned method, pretreated for 30 min with VST, and then cultured for 18 hours. The cells were then treated for 4 hours with each concentration of cisplatin, and a week later their colony-forming ability was examined.

HT-29 cells [3] = experiment: Re-examination of apoptosis inducing effect on HT-29 cells; assay type: cell-based
Text: Since the in vitro strong effect could not be confirmed in the animal experiment, the apoptosis inducing effect of VST on HT-29 cells was reexamined.

GRP78 promoter = GRP78 promoter luciferase reporter analysis in HeLa78C6 cells, with tunicamycin-induced endoplasmic reticulum stress; assay type: cell-based, human
Method: Screening for natural substances that may regulate the expression of GRP78 was performed. Specifically, herbal medicines, and respective metabolites of fungus and actinomyces were prepared as test samples. A screening system was prepared as follows. A GRP78 promoter region (−132 to +7) comprising three ERSE was inserted into the KpnI-BglII site of the multicloning site of pGL3-basic vector (Promega), and a luciferase gene was linked as a reporter gene downstream of the GRP78 promoter to construct a vector. […]
The cell suspension (100 μL) was dispensed into each well of a 96-well plate and incubated at 37° C. in 5% CO2 for 6 hours. […] Then, luciferase activity of the cells was measured using a luciferase measurement kit (Luciferase Assay System: Promega, cat# E1501) following the instruction attached to the kit.
The main culture was separated into culture supernatant and mycelial cake by centrifugation. Similar to Example 1, the activities to suppress GRP78 expression were measured by the reporter analysis method for the culture supernatant and mycelial cake product that was obtained by homogenizing the mycelial cake, respectively. […] Then, luciferase activity of the cells was measured using a luciferase measurement kit.
Using pure VST purified in Example 3, its activity to suppress GRP78 promoter expression was quantitated. […]

HSP70 heat shock protein = experiment: Transcriptional activity of HSP70 (no data shown); assay type: cell-based
GRP78 [4] = experiment: Western blotting of GRP78 induction in HT-29 cells under endoplasmic reticulum stress; assay type: cell-based; conditions: pretreated 30 min, 18 hours
Method: (§1) Specifically, […] HT-29 and HT1080 were cultured in RPMI1640 medium and pretreated for 30 min with 3 μM and 30 μM VST. Next, the GRP78 level was detected 18 hours after each endoplasmic reticulum stress treatment by Western blotting (FIG. 10). […] This phenomenon could be elucidated for the first time by the use of VST.

HT-29 cells [5] = experiment: Colony formation of HT-29 cells under endoplasmic reticulum stress conditions; assay type: cell-based
Method: HT-29 cells were pretreated for 30 min with each concentration of VST, and then subjected to stress treatment with each of the endoplasmic reticulum stresses, i.e., tunicamycin, calcium ionophore A23187, glucose starvation and 2-DG, for 18 hours. Subsequently, the cells were cultured for 1 week […], and then colonies were measured by crystal violet staining.

HT1080 cells = experiment: Apoptosis (sub-G1) of HT1080 cells by propidium iodide FACS analysis; assay type: cell-based; conditions: for sub-G1 stage induction (apoptosis): 3 μM VST
Method: HT1080 cells were pretreated for 30 min with 3 μM of VST, after fixing the cells the nuclei were stained with propidium iodide for FACS analysis. […] In contrast, only a very limited number of HT1080 cells underwent apoptosis with glucose starvation treatment alone.

GRP78 [6] = experiment: Western blotting of GRP78 induction in HT1080 cells under endoplasmic reticulum stress; assay type: cell-based; conditions: pretreated 30 min, 18 hours
Method: as §1

SMILES: CC/C1=C\C(CO)CC(C)C(OC2CC(O)C(OC3CC(OC)C(OC4CC(O)C(O)C(C)O4)C(C)O3)C(C)O2)C(C)CCCC2(C)C=C(C)C(C)CC23OC(=O)C(=C3O)C(=O)C2(CC)C1C(C)=CC1C(O)CC(=O)C(C)C12 (stereo not shown) [VST, versipelostatin]
- antitumor effect (tumor size) (HT-29 cells [1]; HT-29 tumor grown to 100 mm^3 in nude mice, VST through the tail vein (FIG. 15)): showed antitumor effect, although the effect was not as strong as cisplatin
- combined effect with CDDP (cisplatin) (HT-29 cells [1]; HT-29 tumor in nude mice): no effect due to the combination could be confirmed
- effect of the combined use of VST with cisplatin on colony-forming ability (HT-29 cells [2]; VST 300 nM and 500 nM, then cisplatin 4 hours (FIG. 14)): further enhance the effect of cisplatin
- activity on colony-forming ability under glucose starvation condition (HT-29 cells [2]; glucose starvation condition): enhance the activity
- apoptosis induction effect (HT-29 cells [3]): fails to express apoptosis induction effect
- growth suppression effect in colony forming tests (HT-29 cells [3]): shows growth suppression effect
- suppression of the increase of luciferase activity (GRP78 promoter expression) due to tunicamycin (GRP78 promoter; sample added 30 min before tunicamycin 2 μg/mL, 18 hours): suppressed in concordance with the increase in VST concentration
- luciferase expression from the GRP78 promoter, VST alone (GRP78 promoter; without tunicamycin addition): did not affect the expression of luciferase
- influence on the transcriptional activity of HSP70 heat shock protein (HSP70 heat shock protein): no influence
- induction of GRP78 by 2-DG (GRP78 [4]; 3 μM VST): inhibits the induction of GRP78
- GRP78 induction due to tunicamycin treatment (GRP78 [4]; 30 μM VST): did not inhibit GRP78 induction
- cell growth suppression (colony formation) (HT-29 cells [5]; 2-DG treatment 18 hours, 1 week culture (FIG. 11D)): strong cell growth suppression effect
- cell growth suppression (colony formation) (HT-29 cells [5]; glucose starvation 18 hours, 1 week culture (FIG. 11C)): strong cell growth suppression effect
- cell growth suppression (colony formation) (HT-29 cells [5]; tunicamycin treatment 18 hours, 1 week culture (FIG. 11A)): did not show suppression on cell growth
- sub-G1 stage induction (apoptosis) (HT1080 cells; glucose starvation condition, after 48 hours): strong sub-G1 stage induction
- sub-G1 stage induction (apoptosis) (HT1080 cells; in the presence of glucose): did not show any effect
- induction of apoptosis, sequential changes (HT1080 cells; glucose starvation conditions (FIG. 13)): time-dependent manner
- induction of GRP78 by 2-DG (GRP78 [6]; 3 μM VST): inhibits the induction of GRP78
- GRP78 induction due to tunicamycin treatment (GRP78 [6]; 30 μM VST): did not inhibit GRP78 induction
